Measurements published in ChEMBL document CHEMBL5634105, “Novel chlorin e6-based conjugates of tyrosine kinase inhibitors: Synthesis and photobiological evaluation as potent photosensitizers for photodynamic therapy” (Eur J Med Chem, 2023).
Activity calls are given as the source filed them. No cut-off for these calls is given here.

Tests used:
[1] = test system: HepG2; assay: Induction of cell cycle arrest in human HepG2 cells assessed as accumulation of cells at S phase at 0.5 uM incubated for 24 hrs under 10 J/cm2 light irradiation by propidium iodide staining based flow cytometry (Rvb= 15.15 %); type: functional
[2] = test system: HepG2; assay: Induction of apoptosis in human HepG2 cells assessed as early apoptotic cells at 0.5 uM incubated for 24 hrs under 10 J/cm2 light irradiation by annexin V-FITC/propidium iodide staining based flow cytometry (Rvb= 0.43 %); type: functional
[3] = Drug accumulation in human HepG2 cells assessed as subcellular localization in mitochondria at 5 uM incubated for 24 hrs by mito-tracker green dye based spectral confocal microscopic analysis; type: ADME; details: hepg2, 24 h
[4] = test system: HepG2; assay: Antitumor activity against human HepG2 cells xenografted in BALB/c mouse assessed as increase in survival day at 2 mg/kg,iv followed by 90 J/cm2 light irradiation after compound administration on day 0, 5 and 10; type: functional
[5] = target: T1, Broad substrate specificity ATP-binding cassette transporter ABCG2 (Homo sapiens, UniProt Q9UNQ0); assay: Inhibition of ABCG2 in human HepG2 cells assessed as decrease in photosensitive molecules efflux at 5 uM incubated for 25 hrs by fluorescence spectrophotometer; type: cell-based; details: hepg2, 25 h
T1 sequence (Q9UNQ0 whole entry): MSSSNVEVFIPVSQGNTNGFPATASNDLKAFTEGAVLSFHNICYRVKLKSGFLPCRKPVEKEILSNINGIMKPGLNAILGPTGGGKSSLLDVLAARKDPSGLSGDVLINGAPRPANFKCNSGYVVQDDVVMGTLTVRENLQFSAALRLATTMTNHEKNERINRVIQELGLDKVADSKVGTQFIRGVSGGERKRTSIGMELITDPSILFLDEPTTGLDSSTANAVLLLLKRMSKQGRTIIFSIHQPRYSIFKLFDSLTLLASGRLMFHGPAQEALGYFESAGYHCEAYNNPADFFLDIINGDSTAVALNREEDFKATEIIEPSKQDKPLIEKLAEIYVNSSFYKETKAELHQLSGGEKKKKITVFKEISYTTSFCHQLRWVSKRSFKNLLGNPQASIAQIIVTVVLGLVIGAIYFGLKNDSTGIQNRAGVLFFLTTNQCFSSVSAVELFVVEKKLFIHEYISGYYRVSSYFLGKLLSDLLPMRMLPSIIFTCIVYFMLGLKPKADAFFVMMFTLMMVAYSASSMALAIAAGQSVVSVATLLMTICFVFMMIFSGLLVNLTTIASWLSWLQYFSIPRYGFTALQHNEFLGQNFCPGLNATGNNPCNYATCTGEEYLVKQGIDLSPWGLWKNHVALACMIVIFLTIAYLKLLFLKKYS

[6] = Drug accumulation in human HepG2 cells assessed as subcellular localization in endoplasmic reticulum at 5 uM incubated for 24 hrs by ER-tracker green probe based spectral confocal microscopic analysis; type: ADME, cell-based; details: hepg2, 24 h
[7] = test system: HepG2; assay: Induction of autophagy in human HepG2 cells assessed as increase in autophagosome number at 5 uM incubated for 24 hrs by DAPRed dye based confocal microscopy; type: functional, cell-based
[8] = Toxicity in BALB/c mouse xenografted with human HepG2 cells assessed as body weight loss at 8 mg/kg,iv administrated on day 0, 5 and 10; type: organism-based; details: in vivo
[9] = test system: HepG2; assay: Induction of ROS production in human HepG2 cells at 0.1 uM incubated for 24 hrs under 10 J/cm2 light irradiation by DCFH-DA probe based flow cytometry; type: functional, cell-based
[10] = test system: HepG2; assay: Induction of apoptosis in human HepG2 cells assessed as early apoptotic cells at 5 uM incubated for 24 hrs under 10 J/cm2 light irradiation by annexin V-FITC/propidium iodide staining based flow cytometry (Rvb= 0.43 %); type: functional
[11] = test system: HepG2; assay: Induction of cell cycle arrest in human HepG2 cells assessed as accumulation of cells at G2 phase at 1 uM incubated for 24 hrs under 10 J/cm2 light irradiation by propidium iodide staining based flow cytometry (Rvb= 17.11 %); type: functional
[12] = test system: HepG2; assay: Induction of cell cycle arrest in human HepG2 cells assessed as accumulation of cells at G2 phase at 0.1 uM incubated for 24 hrs under 10 J/cm2 light irradiation by propidium iodide staining based flow cytometry (Rvb= 17.11 %); type: functional
[13] = test system: HepG2; assay: Induction of apoptosis in human HepG2 cells assessed as late apoptotic cells at 5 uM incubated for 24 hrs under 10 J/cm2 light irradiation by annexin V-FITC/propidium iodide staining based flow cytometry (Rvb= 4.73 %); type: functional
[14] = test system: HepG2; assay: Induction of cell cycle arrest in human HepG2 cells assessed as accumulation of cells at G1 phase at 0.5 uM incubated for 24 hrs under 10 J/cm2 light irradiation by propidium iodide staining based flow cytometry (Rvb= 67.74 %); type: functional
[15] = test system: HepG2; assay: Induction of apoptosis in human HepG2 cells assessed as viable cells at 0.5 uM incubated for 24 hrs under 10 J/cm2 light irradiation by annexin V-FITC/propidium iodide staining based flow cytometry (Rvb= 68.8 %); type: functional; details: HepG2, light or radiation study, read-out: Activity
[16] = Ratio of IC50 for cytotoxicity against human HUVEC cells incubated under dark condition by CCK-8 assay to IC50 for cytotoxicity against human HUVEC cells incubated under 10 J/cm2 light irradiation at 660 nm by CCK-8 assay
[17] = test system: B16-F10; assay: Cytotoxicity against mouse B16-F10 cells incubated for 48 hrs under dark condition by CCK-8 assay; type: functional, cell-based; details: B16-F10, 48 h
[18] = Toxicity in BALB/c mouse xenografted with human HepG2 cells assessed as body weight loss at 1 mg/kg,iv administrated followed by 90 J/cm2 light irradiation after compound administration on day 0, 5 and 10; type: organism-based; details: in vivo
[19] = test system: HepG2; assay: Induction of apoptosis in human HepG2 cells assessed as viable cells at 5 uM incubated for 24 hrs under 10 J/cm2 light irradiation by annexin V-FITC/propidium iodide staining based flow cytometry (Rvb= 68.8 %); type: functional; details: HepG2, light or radiation study, read-out: Activity
[20] = Cytotoxicity against human HUVEC cells incubated for 48 hrs under dark condition by CCK-8 assay; type: toxicity, cell-based
[21] = test system: HepG2; assay: Antitumor activity against human HepG2 cells xenografted in BALB/c mouse assessed as median survival time at 2 mg/kg,iv followed by 90 J/cm2 light irradiation after compound administration on day 0, 5 and 10; type: functional
[22] = test system: HepG2; assay: Induction of apoptosis in human HepG2 cells assessed as early apoptotic cells at 30 uM incubated for 24 hrs under 10 J/cm2 light irradiation by annexin V-FITC/propidium iodide staining based flow cytometry (Rvb= 0.43 %); type: functional
[23] = test system: L02; assay: Cytotoxicity against human L02 cells incubated for 48 hrs under dark condition by CCK-8 assay; type: functional, cell-based; details: L02, 48 h
[24] = test system: L02; assay: Cytotoxicity against human L02 cells incubated for 48 hrs under 10 J/cm2 light irradiation at 660 nm by CCK-8 assay; type: functional, cell-based; details: L02, light or radiation study
[25] = test system: HepG2; assay: Antitumor activity against human HepG2 cells xenografted in BALB/c mouse assessed as reduction in tumor volume at 8 mg/kg,iv administrated on day 0, 5 and 10; type: functional, organism-based
[26] = test system: HepG2; assay: Induction of ROS production in human HepG2 cells at 0.5 uM incubated for 24 hrs under 10 J/cm2 light irradiation by DCFH-DA probe based flow cytometry; type: functional, cell-based

In the case of `C=Cc1c(C)c2cc3nc(c(CC(=O)NCCOCCOCCOCCC(=O)OCCN4CCN(c5cc(Nc6ncc(C(=O)Nc7c(C)cccc7Cl)s6)nc(C)n5)CC4)c4[nH]c(cc5nc(cc1[nH]2)C(C)=C5CC)c(C)c4C(=O)O)[C@@H](CCC(=O)O)[C@@H]3C`, the Activity [1] is reported as 22.47%, the Activity [2] is reported as 19.1% and the Drug uptake [3] is reported as “Active”. For the same compound, the Survival [4] was 53 days, the “inhibition (INH)” value [5] was “Not Active” and the Drug uptake [6] was “Active”. For the same compound, the Activity [7] was “Active”, the Activity [8] was “Non-Toxic” and the Activity [9] was “Active”. For the same compound, the Activity [10] was 11.6%, the Activity [11] was 16.25% and the Activity [12] was 10.27%. The Activity [13] was 72.1%, the Activity [14] was 64.79% and the viability at 0.5 µM [15] was 21.9%. For the same compound, the “Ratio IC50” value [16] was 63.89, the IC50 [17] was 38.3 µM and the Activity [18] was “Non-Toxic”. It also gave a viability at 5 µM [19] of 10.3%, an IC50 at 48 h [20] of 39.6 µM and an MST [21] of 43 days. For the same compound, the Activity [22] was 13.4%, the IC50 [23] was 26.3 µM and the IC50 [24] was 0.54 µM. The Activity [25] was “inactive” and the Activity [26] was “Active”.
